Molecules are shown by their SMILES. Several values for one entry are separate records, joined by “and”; a condition that tells them apart may be missing. Equal entries are not always repeated.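 Growth conditions: 96-well plates. Treatment: test compound, 48 hours, 5 concentrations. Analysis: linear interpolation between bracketing concentrations; unreached endpoints set to highest concentration. GI50 marks 50% less growth. At the TGI there is no net growth.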

What all share (assay): NCI-60 cell line screen, 48 h
Assay [1] has as its system IGROV1 ovarian.
Assay [2] has as its system NCI-H226 lung.
For assay [3], the system named is MDA-MB-231 breast.
Assay [4] deals with HOP-92 NSCLC.
For assay [5], the system named is MALME-3M melanoma.
The subject of assay [6] is UACC-257 melanoma.
Assay [7] concerns U251 CNS.
The test system of assay [8] is K-562 leukemia.
Assay [9] has as its system LOX IMVI melanoma.
The subject of assay [10] is T-47D breast.

Consider `N=C(N)c1ccc(-c2ccc(-c3cccs3)s2)cc1`, for which the GI50 in [1] is 1.84 µM; in assay [2], 4.03 µM; in [3], 1.64 µM; in [4], 2.71 µM; in assay [5] it was 1.69 µM; in [6], 1.72 µM. Besides, the TGI came out at 3.53 µM in assay [1]; 33 µM in assay [2]; 3.28 µM in [3]; 16 µM in [4]; 3.23 µM in [5]; 3.15 µM in assay [6].
Turning to `Cc1cn([C@@H]2C[C@H](CO)[C@@H](O)C2)c(=O)[nH]c1=O`, the TGI in assay [7], in assay [1], in [8], in assay [9], in assay [2] and in assay [4] was greater than 100 µM in each case. The TGI in assay [5] and in assay [6] was greater than 100 µM throughout.
`Cn1ccnc1C(O)(c1nccn1C)c1nccn1C`: the TGI in assay [7], in assay [9], in assay [2], in [4], in [5] and in assay [6] was greater than 100 µM in each case.
Turning to `CC1=C2C(=C[C@H]3[C@]4(C)CCCC(C)(C)[C@H]4CC[C@]34O[C@H]24)OC1=O`, the TGI in assay [7], in assay [1], in [8], in assay [2], in [3] and in [4] was greater than 100 µM throughout. The TGI in [5] and in assay [6] was greater than 100 µM throughout.
As for `O=C(CN(c1ccccc1)c1ccccc1)N1c2ccccc2C2C=CC=CC21` (centres undefined), the TGI in assay [7] was greater than 56.5 µM; in assay [1], 47.3 µM; in assay [8], greater than 51.5 µM; in assay [9], 44.5 µM; in assay [2], 44.6 µM; in assay [5], 47.1 µM. In assay [6], this molecule registered a TGI of 50.1 µM.
Turning to `COc1c(O)c2c3c(c(C)cc(O)c3c1O)C(=O)C(O)(C(C)(C)C(C)=O)C2=O` (centres undefined), the TGI in [7] is greater than 100 µM; in assay [1] it was greater than 100 µM; in assay [8] it was greater than 100 µM; in assay [9], greater than 100 µM; in assay [2], 34.6 µM; in [4], greater than 100 µM. Moreover, the TGI in assay [5] and in [6] was greater than 100 µM in each case. Besides, the GI50 in assay [8] was 34.4 µM and > 100 µM; in assay [9] it was 33 µM and 67.6 µM.
Consider `CCOC(=O)c1c(-c2ccccc2)c(-c2ccccc2)cn1C`, for which the TGI in [7], in [1], in [8], in assay [2], in assay [4] and in assay [5] was greater than 10 µM each time. In addition, the TGI in assay [6] is greater than 10 µM.
Turning to `COC(=O)/C(=N/O)C(C(=O)C=C(C)C)C(=O)C(=O)Nc1nc2ccc([N+](=O)[O-])cc2s1` (centres undefined), the TGI in assay [7] is greater than 100 µM; in [1] it was greater than 100 µM; in assay [8], greater than 100 µM; in [9] it was 93.1 µM; in assay [2], 72.1 µM; in [4], 42.8 µM. Besides, the TGI in assay [5] and in [6] was greater than 100 µM each time.
Take `O=C1NCCS(=O)(=O)N[C@@H](CC2=CC=CCC2)C(=O)N2CCCC12` (some centres undefined): the TGI in assay [7], in assay [1], in assay [8], in assay [9], in [2] and in assay [4] was greater than 100 µM each time. For the same molecule, the TGI in assay [5] and in assay [6] was greater than 100 µM each time.
With `O=C(Nc1ccccc1F)c1cc2ccc(O)cc2oc1=Nc1ccccc1F`, the TGI stood at 4.63 µM in assay [10]; 3.63 µM in assay [7]; 4.13 µM in assay [1]; 7.64 µM in [8]; 4.16 µM in [9]; 3.44 µM in assay [5]. Moreover, in assay [6], the TGI worked out at 10.1 µM.
For `Cc1cccc(C2=C/C(=C(\SS/C(C(=O)c3ccc(OCC(=O)O)c(Cl)c3Cl)=C3\C=C(c4cccc(C)c4)SS3)C(=O)c3ccc(OCC(=O)O)c(Cl)c3Cl)SS2)c1`, the TGI in assay [7] was 14.3 µM; in assay [1], 44.8 µM; in assay [8], 36.2 µM; in assay [9], 18 µM; in assay [2] it was 35.6 µM; in assay [4] it was 23.1 µM. Besides, the TGI in assay [5] is 74.9 µM; in [6] it was greater than 77.3 µM.
For the molecule `CSC(=Nc1ccccc1)N(c1ccccc1)c1nc(=[N+](C)C)ss1`, the TGI in [7] was 17.2 µM; in assay [1], 12.8 µM; in assay [8], 2.89 µM; in assay [9] it was 12.7 µM; in assay [4], 7.09 µM; in [5], 22.6 µM. In assay [6], the TGI is 4.96 µM.
With `O=C(NC(COC(=O)C(Cc1ccccc1)NC(=O)c1ccccc1)Cc1ccccc1)c1ccccc1` (centres undefined), the TGI in assay [7], in assay [1], in assay [8], in assay [4], in assay [5] and in assay [6] was greater than 50 µM in each case.
For `CCN1CCCC(NCc2c3ccccc3c(CNC3CCCN(CC)C3)c3ccccc23)C1` (centres undefined), the TGI was found to be 45.3 µM in assay [7]; 55.7 µM in assay [1]; 42.6 µM in [8]; 22.3 µM in [9]; 30 µM in [2]; 38.6 µM in assay [4]. Moreover, the figures for the TGI in assay [5] and in assay [6] were 40.9 µM and 26.4 µM, respectively.
Consider `COc1ccc(-c2oc(/C=N/NC(N)=S)c([N+](=O)[O-])c2-c2ccc(OC)c(OC)c2)cc1OC`, for which the TGI was greater than 100 µM in assay [1]; 66 µM in assay [9]; 62.4 µM in assay [2]; 79 µM in assay [4]; 35.9 µM in assay [5]; greater than 100 µM in [6].
As for `COc1ccc(/C=C2\C[C@H]3[C@@H]4CCC5=C/C(=N/O)CC[C@]5(C)[C@H]4CC[C@]3(C)\C2=N\O)cc1OC`, the TGI in [10], in [1], in assay [8], in [9], in assay [2] and in assay [4] was greater than 100 µM each time. Besides, the TGI in assay [5] and in assay [6] was greater than 100 µM each time.

The values are drawn from PubChem BioAssay (NCI).
